Article PMC10439310 (Nature microbiology, 2022)

Experiments:
BsIMPDH [1] = biological target: T1, BsIMPDH (Bacillus subtilis, UniProt P21879); conditions: for binding to BsIMPDH (in words): ITC, 25 °C, 25 μM BsIMPDH
BsIMPDH [2] = biological target: T1, BsIMPDH; assay: biochemical
BsIMPDH-ΔCBS [3] = conditions: 10 μM Ap4A
BsIMPDH-ΔCBS [4] = conditions: presence of IMP and NAD+
BsIMPDH [5] = biological target: T1, BsIMPDH; conditions: 50 μM BsIMPDH, 5 mM ligand, 25 °C
E. coli IMPDH = conditions: cited from earlier work
A. gossypii IMPDH = conditions: cited from earlier work
BsIMPDH [6] = biological target: T1, BsIMPDH; assay: biochemical; remark: listed apart in the source
BsIMPDH [7] = biological target: T1, BsIMPDH; assay: Mass photometry of BsIMPDH tetramer/octamer state; conditions: EC50 of BsIMPDH octamer formation, absence of substrates, 100 nM BsIMPDH
[8] = dinucleotide 10 μM, NAD+ constant, IMP variable

T1 sequence (P21879 whole entry): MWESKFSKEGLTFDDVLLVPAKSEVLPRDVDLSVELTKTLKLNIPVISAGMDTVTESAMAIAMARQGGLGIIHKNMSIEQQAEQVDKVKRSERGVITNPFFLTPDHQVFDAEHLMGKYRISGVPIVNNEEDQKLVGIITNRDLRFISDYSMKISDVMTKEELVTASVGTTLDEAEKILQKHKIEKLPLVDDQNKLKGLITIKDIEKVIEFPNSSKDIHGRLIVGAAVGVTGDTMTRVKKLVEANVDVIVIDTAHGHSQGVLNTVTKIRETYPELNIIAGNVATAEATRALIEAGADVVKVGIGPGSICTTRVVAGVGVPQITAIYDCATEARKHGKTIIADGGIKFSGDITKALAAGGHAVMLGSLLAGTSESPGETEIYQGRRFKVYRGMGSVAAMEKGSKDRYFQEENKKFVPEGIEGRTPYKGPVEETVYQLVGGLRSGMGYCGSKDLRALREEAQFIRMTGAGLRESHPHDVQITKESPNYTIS

## Nc1nc2c(ncn2[C@@H]2O[C@H](COP(=O)(O)OP(=O)(O)OP(=O)(O)OC[C@H]3O[C@@H](n4cnc5c(N)ncnc54)[C@H](O)[C@@H]3O)[C@@H](O)[C@H]2O)c(=O)[nH]1 [Ap3G]
BsIMPDH [1]
  binding to BsIMPDH (in words): No binding

## Nc1ncnc2c1ncn2[C@@H]1O[C@H](COP(=O)(O)OP(=O)(O)OP(=O)(O)OP(=O)(O)OC[C@H]2O[C@@H](n3cnc4c(N)ncnc43)[C@H](O)[C@@H]2O)[C@@H](O)[C@H]1O [Ap4A, diadenosine 5’,5’’’-P1,P4-tetraphosphate]
BsIMPDH [2]
  Ki: 15.8 µM
BsIMPDH [2]; Ap4A 1-100 μM
  effect on BsIMPDH activity (in words): potently reduced BsIMPDH activity
BsIMPDH [1]; from ITC Kd values
  difference in affinity between Ap4A and ATP: approximately 700 fold
BsIMPDH-ΔCBS [3]
  Ap4A-dependent regulation of enzymatic activity (in words): insensitive to Ap4A-dependent regulation
BsIMPDH-ΔCBS [4]
  Ap4A-dependent tetramer-to-octamer equilibrium (in words): insensitive to Ap4A-dependent regulation
BsIMPDH [5]
  effect on conformational flexibility of CBS domains (HDX-MS, in words): restrict the conformational flexibility of the CBS domains
E. coli IMPDH
  affinity relative to ATP: five-fold higher affinity than ATP
A. gossypii IMPDH
  binding (in words): only with low affinity
BsIMPDH [6]
  Kd: 7.4 ± 2.1 µM
BsIMPDH [7]
  EC50: 90 µM

## Nc1nc2c(ncn2[C@@H]2O[C@H](COP(=O)(O)OP(=O)(O)OP(=O)(O)OP(=O)(O)OC[C@H]3O[C@@H](n4cnc5c(N)ncnc54)[C@@H](O)C3O)[C@H](O)C2O)c(=O)[nH]1 (some centres unmarked) [Ap4G]
BsIMPDH [1]
  binding to BsIMPDH (in words): No binding

## Nc1ncnc2c1ncn2[C@@H]1O[C@H](COP(=O)(O)OP(=O)(O)OP(=O)(O)OP(=O)(O)OP(=O)(O)OC[C@H]2O[C@@H](n3cnc4c(N)ncnc43)[C@H](O)[C@@H]2O)[C@@H](O)[C@H]1O [Ap5A]
BsIMPDH [2]; [8]
  effect on BsIMPDH activity (in words): resulted in BsIMPDH inhibition

## Nc1nc2c(ncn2[C@@H]2O[C@H](COP(=O)(O)OP(=O)(O)OP(=O)(O)OP(=O)(O)OP(=O)(O)OC[C@H]3O[C@@H](n4cnc5c(N)ncnc54)[C@H](O)[C@@H]3O)[C@@H](O)[C@H]2O)c(=O)[nH]1 [Ap5G]
BsIMPDH [1]
  binding to BsIMPDH (in words): No binding
A. gossypii IMPDH
  binding (in words): well

## Nc1ncnc2c1ncn2[C@@H]1O[C@H](COP(=O)(O)OP(=O)(O)OP(=O)(O)OP(=O)(O)OP(=O)(O)OP(=O)(O)OC[C@H]2O[C@@H](n3cnc4c(N)ncnc43)[C@H](O)[C@@H]2O)[C@@H](O)[C@H]1O [Ap6A]
BsIMPDH [2]; [8]
  effect on BsIMPDH activity (in words): resulted in BsIMPDH inhibition

## Nc1nc2c(ncn2[C@@H]2O[C@H](COP(=O)(O)OP(=O)(O)O)[C@@H](O)[C@H]2O)c(=O)[nH]1 [GDP, guanosine-5’-mono-, di-, triphosphate]
A. gossypii IMPDH
  binding (in words): well
